{
  "source": "patent US20210116454A1",
  "about": "“METHODS FOR TREATING A HEMATOLOGICAL CANCER AND THE USE OF COMPANION BIOMARKERS FOR 2-(2,6-DIOXOPIPERIDIN-3-YL)-4-((2-FLUORO-4-((3-MORPHOLINOAZETIDIN-1-YL)METHYL)BENZYL)AMINO)ISOINDOLINE-1,3-DIONE” (CELGENE CORPORATION, priority 2019, published 2021)",
  "experiment_in_all_cases": "5-day viable cell number and apoptosis (7-AAD exclusion/Annexin V flow cytometry)",
  "type_in_all_cases": "cell-based",
  "key": {"HT": {"system": "HT", "description": "(§1) The DLBCL panel includes seven cell lines classified as activated B-cell (ABC) subtype, thirteen cell lines classified as the germinal center B-cell (GCB) subtype, and three cell lines classified as primary mediastinal B-cell lymphoma (PMBL). […] The translocation of MYC, BCL6, or BCL2 to an IG locus usually leads to high levels of mRNA and protein due to the active transcription driven by a constitutively active IG promoter. […] Expressions of CRBN protein and known substrates, Ikaros, Aiolos, and ZFP91 were also evaluated (FIG. 1, panels B and C).\n(§2) The panel of cell lines were treated with increasing doses of compounds for five days, at which time the number of viable cells was measured and the amount of apoptosis was determined by 7-AAD exclusion and Annexin V staining using flow cytometry."}, "SU-DHL-8": {"system": "SU-DHL-8", "description": "as §1, §2"}, "TMD8": {"system": "TMD8", "settings": "TMD8 cells, 5 days", "description": "as §1, §2"}, "OCI-Ly10": {"system": "OCI-Ly10", "description": "as §1, §2"}, "U2940": {"system": "U2940", "settings": "U2940 cells, 5 days", "description": "as §1, §2"}, "Farage": {"system": "Farage", "description": "as §1, §2"}, "U2932": {"system": "U2932", "description": "as §1, §2"}, "Pfeiffer": {"system": "Pfeiffer", "settings": "Homo sapiens", "description": "as §1, §2"}, "[1]": {"settings": "Homo sapiens, 120 h, HT cells, 5 days"}, "[2]": {"settings": "Homo sapiens, 120 h, SU-DHL-8 cells, 5 days"}, "[3]": {"settings": "Homo sapiens, 120 h, OCI-Ly10 cells, 5 days"}, "[4]": {"settings": "Homo sapiens, 120 h, U2932 cells, 5 days"}},
  "note": "Read-outs that look alike come from different tables or passages of the source.",
  "data": [
    {"smiles": "O=C1CC[C@H](N2C(=O)c3cccc(NCc4ccc(CN5CC(N6CCOCC6)C5)cc4F)c3C2=O)C(=O)N1", "note": "[Compound 1, (S)-2-(2,6-dioxopiperidin-3-yl)-4-((2-fluoro-4-((3-morpholinoazetidin-1-yl)methyl)benzyl)amino)isoindoline-1,3-dione]", "values": [
      {"measurement": "% Viable Cells AUC", "setting": "HT; HT cells, 5 days", "value": 434.8},
      {"measurement": "% Viable Cells Emax", "setting": "HT; HT cells, 5 days", "value": 45.18, "unit": "%"},
      {"measurement": "% Viable Cells Sensitivity", "setting": "HT; HT cells, 5 days", "value": "Intermediate (intermediate sensitivity with 15% to 55% cell viability)"},
      {"measurement": "Apoptosis AUC", "setting": "HT; HT cells, 5 days", "value": 158.2},
      {"measurement": "Apoptosis Sensitivity", "setting": "HT; HT cells, 5 days", "value": "Intermediate"},
      {"measurement": "EC50", "setting": "HT; [1]", "value": 7.82, "unit": "nM"},
      {"measurement": "Emax", "setting": "HT; [1]", "value": 16.6, "unit": "%"},
      {"measurement": "IC50", "setting": "HT; Homo sapiens, 120 h, HT cells, 5 days, read-out: % Viable Cells IC50", "value": 470, "unit": "nM"},
      {"measurement": "IC50", "setting": "HT; Homo sapiens, HT cells (Table 3), read-out: IC50", "value": 435000, "unit": "nM"},
      {"measurement": "EC50", "setting": "SU-DHL-8; [2]", "value": 509, "unit": "nM"},
      {"measurement": "Emax", "setting": "SU-DHL-8; [2]", "value": 70.5, "unit": "%"},
      {"measurement": "IC50", "setting": "SU-DHL-8; Homo sapiens, 120 h, SU-DHL-8 cells, 5 days, read-out: % Viable Cells IC50", "value": 250, "unit": "nM"},
      {"measurement": "IC50", "setting": "SU-DHL-8; Homo sapiens, SU-DHL-8 cells (Table 3), read-out: IC50", "value": 54000, "unit": "nM"},
      {"measurement": "% Viable Cells AUC", "setting": "SU-DHL-8; SU-DHL-8 cells, 5 days", "value": 54.43},
      {"measurement": "% Viable Cells Emax", "setting": "SU-DHL-8; SU-DHL-8 cells, 5 days", "value": 2.508, "unit": "%"},
      {"measurement": "% Viable Cells Sensitivity", "setting": "SU-DHL-8; SU-DHL-8 cells, 5 days", "value": "High (highly sensitive to Compound 1 with less than 6% viable cells remaining (Emax) after treatment)"},
      {"measurement": "Apoptosis AUC", "setting": "SU-DHL-8; SU-DHL-8 cells, 5 days", "value": 652.5},
      {"measurement": "Apoptosis Sensitivity", "setting": "SU-DHL-8; SU-DHL-8 cells, 5 days", "value": "High"},
      {"measurement": "EC50", "setting": "TMD8; Homo sapiens, 120 h", "value": 4.44, "unit": "nM"},
      {"measurement": "Emax", "setting": "TMD8; Homo sapiens, 120 h", "value": 83.2, "unit": "%"},
      {"measurement": "IC50", "setting": "TMD8; Homo sapiens, 120 h, read-out: % Viable Cells IC50", "value": 3, "unit": "nM"},
      {"measurement": "% Viable Cells AUC", "setting": "TMD8", "value": 3.911},
      {"measurement": "% Viable Cells Emax", "setting": "TMD8", "value": 1.365, "unit": "%"},
      {"measurement": "% Viable Cells Sensitivity", "setting": "TMD8", "value": "High (highly sensitive to Compound 1 with less than 6% viable cells remaining (Emax) after treatment)"},
      {"measurement": "Apoptosis AUC", "setting": "TMD8", "value": 826.8},
      {"measurement": "Apoptosis Sensitivity", "setting": "TMD8", "value": "High"},
      {"measurement": "EC50", "setting": "OCI-Ly10; [3]", "value": 2090, "unit": "nM"},
      {"measurement": "Emax", "setting": "OCI-Ly10; [3]", "value": 29.4, "unit": "%"},
      {"measurement": "IC50", "setting": "OCI-Ly10; Homo sapiens, 120 h, OCI-Ly10 cells, 5 days, read-out: % Viable Cells IC50", "value": 50, "unit": "nM"},
      {"measurement": "IC50", "setting": "OCI-Ly10; Homo sapiens, OCI-Ly10 cells (Table 3), read-out: IC50", "value": 267000, "unit": "nM"},
      {"measurement": "% Viable Cells AUC", "setting": "OCI-Ly10; OCI-Ly10 cells, 5 days", "value": 267.3},
      {"measurement": "% Viable Cells Emax", "setting": "OCI-Ly10; OCI-Ly10 cells, 5 days", "value": 19.19, "unit": "%"},
      {"measurement": "% Viable Cells Sensitivity", "setting": "OCI-Ly10; OCI-Ly10 cells, 5 days", "value": "Intermediate (intermediate sensitivity with 15% to 55% cell viability)"},
      {"measurement": "Apoptosis AUC", "setting": "OCI-Ly10; OCI-Ly10 cells, 5 days", "value": 187.7},
      {"measurement": "Apoptosis Sensitivity", "setting": "OCI-Ly10; OCI-Ly10 cells, 5 days", "value": "Intermediate"},
      {"measurement": "EC50", "setting": "U2940; Homo sapiens, U-2940, 120 h", "value": 67.9, "unit": "nM"},
      {"measurement": "Emax", "setting": "U2940; Homo sapiens, U-2940, 120 h", "value": 29, "unit": "%"},
      {"measurement": "IC50", "setting": "U2940; Homo sapiens, U-2940, 120 h, read-out: % Viable Cells IC50", "value": 35, "unit": "nM"},
      {"measurement": "% Viable Cells AUC", "setting": "U2940", "value": 289.1},
      {"measurement": "% Viable Cells Emax", "setting": "U2940", "value": 29.24, "unit": "%"},
      {"measurement": "% Viable Cells Sensitivity", "setting": "U2940", "value": "Intermediate (intermediate sensitivity with 15% to 55% cell viability)"},
      {"measurement": "Apoptosis AUC", "setting": "U2940", "value": 267.4},
      {"measurement": "Apoptosis Sensitivity", "setting": "U2940", "value": "Intermediate"},
      {"measurement": "EC50", "setting": "Farage; 120 h, Farage cells, 5 days", "value": 73.6, "unit": "nM"},
      {"measurement": "Emax", "setting": "Farage; 120 h, Farage cells, 5 days", "value": 54.2, "unit": "%"},
      {"measurement": "IC50", "setting": "Farage; 120 h, Farage cells, 5 days, read-out: % Viable Cells IC50", "value": 3.7, "unit": "nM"},
      {"measurement": "IC50", "setting": "Farage; Farage cells (Table 3), read-out: IC50", "value": 59000, "unit": "nM"},
      {"measurement": "% Viable Cells AUC", "setting": "Farage; Farage cells, 5 days", "value": 59.29},
      {"measurement": "% Viable Cells Emax", "setting": "Farage; Farage cells, 5 days", "value": 1.676, "unit": "%"},
      {"measurement": "% Viable Cells Sensitivity", "setting": "Farage; Farage cells, 5 days", "value": "High (highly sensitive to Compound 1 with less than 6% viable cells remaining (Emax) after treatment)"},
      {"measurement": "Apoptosis AUC", "setting": "Farage; Farage cells, 5 days", "value": 503.6},
      {"measurement": "Apoptosis Sensitivity", "setting": "Farage; Farage cells, 5 days", "value": "High"},
      {"measurement": "EC50", "setting": "U2932; [4]", "value": 11900, "unit": "nM"},
      {"measurement": "Emax", "setting": "U2932; [4]", "value": 69.9, "unit": "%"},
      {"measurement": "IC50", "setting": "U2932; Homo sapiens, 120 h, U2932 cells, 5 days, read-out: % Viable Cells IC50", "value": 100, "unit": "nM"},
      {"measurement": "IC50", "setting": "U2932; Homo sapiens, U2932 cells (Table 3), read-out: IC50", "value": 327000, "unit": "nM"},
      {"measurement": "% Viable Cells AUC", "setting": "U2932; U2932 cells, 5 days", "value": 327.1},
      {"measurement": "% Viable Cells Emax", "setting": "U2932; U2932 cells, 5 days", "value": 24.81, "unit": "%"},
      {"measurement": "% Viable Cells Sensitivity", "setting": "U2932; U2932 cells, 5 days", "value": "Intermediate (intermediate sensitivity with 15% to 55% cell viability)"},
      {"measurement": "Apoptosis AUC", "setting": "U2932; U2932 cells, 5 days", "value": 280.5},
      {"measurement": "Apoptosis Sensitivity", "setting": "U2932; U2932 cells, 5 days", "value": "Intermediate"},
      {"measurement": "EC50", "setting": "Pfeiffer; 120 h, Pfeiffer cells, 5 days", "value": 300, "unit": "nM"},
      {"measurement": "Emax", "setting": "Pfeiffer; 120 h, Pfeiffer cells, 5 days", "value": 8.01, "unit": "%"},
      {"measurement": "IC50", "setting": "Pfeiffer; Pfeiffer cells (Table 3)", "value": 855000, "unit": "nM"}
    ]}
  ]
}
